Assay results reported in patent US20030229114A1, “Pyrroloquinoline quinone drugs as a neuroprotectant and methods of use thereof” (priority 2002, published 2003).

Test system: Oligodendrocytes
Assay: In vitro white matter injury assay: SIN-1 toxicity in oligodendrocytes
Type: cell-based
Settings: PQQ 100 μM; SIN-1 0.25-2 mM, 2 hr; examined at 24 hr
Method: Oligodendrocytes were exposed to various concentrations of SIN-1 (0, 0.25, 0.5, 1 and 2 mM) in EBSS for 2 hr with or without PQQ (100 μM), then washed with HBSS containing 0.1% BSA for 2 times. Oligodendrocytes were then returned to the culture medium. The neurotoxicity was examined at 24 hr.
To illustrate the neuroprotective benefits of the invention, PQQ was used to show oligodendrocytes protection from cell toxicity in an in vitro white matter injury assay. Oligodendrocytes were exposed to various concentrations of SIN-1 (0, 0.25, 0.5, 1 and 2 mM) in EBSS for 2 hr with or without PQQ (100 μM), then washed with HBSS containing 0.1% BSA for 2 times. Oligodendrocytes were then returned to the culture medium. The neurotoxicity was examined at 24 hr.

O=C(O)c1cc(C(=O)O)c2c(n1)C(=O)C(=O)c1cc(C(=O)O)[nH]c1-2 [PQQ, Pyrroloquinoline quinone]
Effect on oligodendrocyte death induced by SIN-1: completely blocked
